# Data taken from US20250059164A1, “IRAK DEGRADERS AND USES THEREOF” (Kymera Therapeutics, Inc., priority 2023, published 2025).
# Target: T1, IRAK4 (Homo sapiens, UniProt Q9NWZ3)
# T1 construct: endogenous in cells; host or cells: OCI-LY10
# T1 sequence (Q9NWZ3 1-460): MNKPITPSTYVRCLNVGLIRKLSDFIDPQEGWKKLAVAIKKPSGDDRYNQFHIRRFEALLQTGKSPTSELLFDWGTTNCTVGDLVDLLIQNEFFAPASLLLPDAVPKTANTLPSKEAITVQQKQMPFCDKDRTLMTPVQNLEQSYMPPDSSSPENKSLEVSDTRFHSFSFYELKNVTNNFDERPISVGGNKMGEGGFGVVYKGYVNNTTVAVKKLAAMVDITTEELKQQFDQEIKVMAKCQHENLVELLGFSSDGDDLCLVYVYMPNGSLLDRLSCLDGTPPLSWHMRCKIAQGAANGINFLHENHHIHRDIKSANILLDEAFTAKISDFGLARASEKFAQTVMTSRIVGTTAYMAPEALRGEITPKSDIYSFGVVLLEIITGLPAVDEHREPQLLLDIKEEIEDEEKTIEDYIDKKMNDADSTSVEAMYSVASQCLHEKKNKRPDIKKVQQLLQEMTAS
# Assay: IRAK4 MSD degradation in OCI-LY10
# Assay type: cell-based
# Conditions: OCI-LY10 cells, 24 hrs, Meso Scale Discovery
# Experimental: Degradation of IRAK4 in OCI-LY10 was quantitatively measured using Meso Scale Discovery technology. […] Compounds were then added to the assay plates with a final top concentration of 1 to 10 μM in a 1:3 dilution series with total of 8 doses. The assay plates were then incubated for 4 to 24 hours at 37° C. under 5% CO2. […] To prepare MSD assay plates (Meso Scale Discovery Catalog number L15XA-3), the plates were coated with 2 μg/mL capture antibody (mouse Anti-IRAK4 antibody [2H9], ab119942) in PBS, at 40 μL/well. […] Cell lysates were then added to MSD assay plates and the plates were incubated at room temperature for 1 hour. The plates were then washed 3 times with 150 μL/well TBST buffer and 25 μL/well primary detection antibody (rabbit Anti-IRAK4 antibody [Y279], from Abcam. Catalog number ab32511, 1 μg/mL). The assay plates were then incubated at room temperature for 1 hour, washed 3 times with 150 μL/well TBST buffer and 25 μL/well secondary detection antibody, SULFO-TAG anti-rabbit antibody were added (anti-rabbit antibody from Meso Scale Discovery, Catalog number R32AB-1, 1 μg/mL). The assay plates were then incubated at room temperature for 1 hour, washed 3 times with 150 μL/well TBST buffer, and 150 μL/well MSD reading buffer (Meso Scale Discovery catalog number R92TC-2) was added. The plates were then analyzed by a MSD reader (Meso Scale Discovery, Model Quick Plex SQ 120). The data was then analyzed by software Prism 7.0 from GraphPad and the dose-depended IRAK4 degradation were fit using a three-parameter logistic equation to calculate DC50.
# The letter codes for IRAK4 DC50 include: A (<0.01 μM); B (0.01 to <0.1 μM); C (0.1 to 0.2 μM); D (>0.2 μM) and E (not tested).
row,DC50 [nM],SMILES
1,< 10,"Cn1c(=O)n([C@@H]2CCC(=O)NC2=O)c2cccc(N3CCC4(CCN(C[C@H]5CC[C@H](n6cc7cc(NC(=O)c8cncc(C#N)c8)c(C(C)(C)O)cc7n6)CC5)CC4(F)F)CC3)c21 (single isomer, unassigned) [I-224]"
2,< 10,"Cn1c(=O)n([C@H]2CCC(=O)NC2=O)c2cccc(N3CCC4(CCN(C[C@H]5CC[C@H](n6cc7cc(NC(=O)c8cncc(C#N)c8)c(C(C)(C)O)cc7n6)CC5)CC4(F)F)CC3)c21 (single isomer, unassigned) [I-225]"
3,< 10,"Cn1c(=O)n([C@H]2CCC(=O)NC2=O)c2ccc(F)c([C@@H]3CCN(C[C@H]4CC[C@H](n5cc6cc(NC(=O)c7cncc(C#N)c7)c(C(C)(C)O)cc6n5)CC4)CC3(F)F)c21 (single isomer, unassigned) [I-232]"
4,< 10,"COc1ccc2c(c1N1CC3(CCN(C[C@H]4CC[C@H](n5cc6cc(NC(=O)c7cncc(C#N)c7)c(C(C)(C)O)cc6n5)CC4)CC3(F)F)C1)n(C)c(=O)n2[C@@H]1CCC(=O)NC1=O (single isomer, unassigned) [I-235]"
5,< 10,"COc1cc2nn([C@H]3CC[C@H](CN4CC[C@@H](c5cccc6c5c(C)nn6C5CCC(=O)NC5=O)[C@H](F)C4)CC3)cc2cc1NC(=O)c1cncc(C#N)c1 (single isomer, unassigned) [I-265]"
6,< 10,"COc1ccc2c(c1N1CC[C@H](N(C)C[C@H]3CC[C@H](n4cc(NC(=O)c5cnn6cccnc56)c(C(F)F)n4)CC3)C(F)(F)C1)n(C)c(=O)n2C1CCC(=O)NC1=O (single isomer, unassigned) [I-289]"
7,10 to 100,"Cn1c(=O)n(C2CCC(=O)NC2=O)c2cccc(C#CCN3CCN(C[C@H]4CC[C@H](n5cc(NC(=O)c6cnn7ccc(N8C[C@H]9C[C@@H]8CO9)nc67)c(C(F)F)n5)CC4)C[C@@H]3C(F)(F)F)c21 (single isomer, unassigned) [I-303]"
8,10 to 100,"Cn1c(=O)n(C2CCC(=O)NC2=O)c2cccc(N3CCN(C[C@H]4CC[C@H](n5cc6cc(NC(=O)c7cncc(C(F)(F)F)n7)ccc6n5)CC4)C[C@H]3C(F)(F)F)c21 (single isomer, unassigned) [I-325]"
9,< 10,"Cn1c(=O)n(C2CCC(=O)NC2=O)c2cccc([C@@H]3CCN(C[C@H]4CC[C@H](c5nc6cc(C(C)(C)O)c(NC(=O)c7cncc(C(F)(F)F)n7)cc6o5)CC4)CC3(F)F)c21 (single isomer, unassigned) [I-327]"
10,10 to 100,"Cn1c(=O)n(C2CCC(=O)NC2=O)c2cccc([C@H]3CCN(C[C@H]4CC[C@H](c5nc6cc(C(C)(C)O)c(NC(=O)c7cncc(C(F)(F)F)n7)cc6o5)CC4)CC3(F)F)c21 (single isomer, unassigned) [I-328]"
11,10 to 100,"Cc1nn(C2CCC(=O)NC2=O)c2cccc([C@H]3CCN(C[C@H]4CC[C@H](n5cc6cc(NC(=O)c7cncc(C(F)(F)F)n7)ncc6n5)CC4)C[C@@H]3F)c12 (single isomer, unassigned) [I-341]"
12,> 200,"Cn1c(=O)n(C2CCC(=O)NC2=O)c2ccc([C@@H]3CCN(C[C@H]4CC[C@H](n5cc6cc(NC(=O)c7cncc(C(F)(F)F)n7)ccc6n5)CC4)C[C@H]3F)cc21 (single isomer, unassigned) [I-349]"
13,> 200,"Cn1c(=O)n(C2CCC(=O)NC2=O)c2ccc([C@H]3CCN(C[C@H]4CC[C@H](n5cc6cc(NC(=O)c7cncc(C(F)(F)F)n7)ccc6n5)CC4)C[C@@H]3F)cc21 (single isomer, unassigned) [I-351]"

# The remaining lines, values behind:
row,SMILES,DC50 [nM]
1,"CN(C[C@H]1CC[C@H](c2cc3cc(NC(=O)c4cncc(C(F)(F)F)n4)ccn3n2)CC1)[C@H]1CCN(c2cccc3c2n(C)c(=O)n3C2CCC(=O)NC2=O)C[C@H]1F (single isomer, unassigned) [I-212]",10 to 100
2,"Cn1nc([C@@H]2CCC(=O)NC2=O)c2cccc([C@@H]3CCN(C[C@H]4CC[C@H](n5cc6cc(NC(=O)c7cncc(C#N)c7)c(C(C)(C)O)cc6n5)CC4)CC3(F)F)c21 (single isomer, unassigned) [I-230]",< 10
3,"COc1ccc2c(c1N1CC3(CCN(C[C@H]4CC[C@H](n5cc6cc(NC(=O)c7cncc(C#N)c7)c(C(C)(C)O)cc6n5)CC4)CC3(F)F)C1)n(C)c(=O)n2[C@H]1CCC(=O)NC1=O (single isomer, unassigned) [I-234]",< 10
4,"Cn1c(=O)n([C@H]2CCC(=O)NC2=O)c2cccc([C@@H]3CCN(C[C@H]4CC[C@H](c5nc6cc(C(C)(C)O)c(NC(=O)c7cncc(C#N)c7)cc6s5)CC4)C[C@H]3F)c21 (single isomer, unassigned) [I-236]",< 10
5,"Cn1c(=O)n([C@@H]2CCC(=O)NC2=O)c2cccc([C@@H]3CCN(C[C@H]4CC[C@H](c5nc6cc(C(C)(C)O)c(NC(=O)c7cncc(C#N)c7)cc6s5)CC4)C[C@H]3F)c21 (single isomer, unassigned) [I-237]",< 10
6,"CN(C[C@H]1CC[C@H](c2cn3cc(NC(=O)c4cncc(C(F)(F)F)n4)ccc3n2)CC1)[C@H]1CCN(c2cccc3c2n(C)c(=O)n3C2CCC(=O)NC2=O)C[C@H]1F (single isomer, unassigned) [I-285]",< 10
7,"CN(C[C@H]1CC[C@H](c2cc3cc(NC(=O)c4cncc(C(F)(F)F)n4)ccn3n2)CC1)[C@@H]1CCN(c2cccc3c2n(C)c(=O)n3C2CCC(=O)NC2=O)C[C@H]1F (single isomer, unassigned) [I-291]",> 200
8,"CN(C[C@H]1CC[C@H](c2cc3cc(NC(=O)c4cncc(C(F)(F)F)n4)ccn3n2)CC1)[C@H]1CCN(c2cccc3c2n(C)c(=O)n3C2CCC(=O)NC2=O)C[C@@H]1F (single isomer, unassigned) [I-292]",10 to 100
9,"CN(C[C@H]1CC[C@H](c2nc3cc(C(C)(C)O)c(NC(=O)c4cncc(C(F)(F)F)n4)cc3o2)CC1)[C@H]1CCN(c2cccc3c2n(C)c(=O)n3C2CCC(=O)NC2=O)C[C@@H]1F (single isomer, unassigned) [I-298]",< 10
10,"CN(C[C@H]1CC[C@H](c2nc3cc(C(C)(C)O)c(NC(=O)c4cncc(C(F)(F)F)n4)cc3o2)CC1)[C@H]1CCN(c2cccc3c2n(C)c(=O)n3C2CCC(=O)NC2=O)C[C@H]1F (single isomer, unassigned) [I-299]",< 10
11,"CN(C[C@H]1CC[C@H](c2nc3cc(C(C)(C)O)c(NC(=O)c4cncc(C(F)(F)F)n4)cc3s2)CC1)[C@@H]1CCN(c2cccc3c2n(C)c(=O)n3C2CCC(=O)NC2=O)C[C@H]1F (single isomer, unassigned) [I-300]",< 10
12,"COc1cc2nc([C@H]3CC[C@H](CN(C)[C@@H]4CCN(c5cccc6c5n(C)c(=O)n6C5CCC(=O)NC5=O)C[C@H]4F)CC3)cn2cc1NC(=O)c1cncc(C(F)(F)F)n1 (single isomer, unassigned) [I-317]",< 10
13,"COc1cc2nc([C@H]3CC[C@H](CN(C)[C@H]4CCN(c5cccc6c5n(C)c(=O)n6C5CCC(=O)NC5=O)C[C@@H]4F)CC3)cn2cc1NC(=O)c1cncc(C(F)(F)F)n1 (single isomer, unassigned) [I-318]",< 10
14,"COc1cc2nc([C@H]3CC[C@H](CN(C)[C@H]4CCN(c5cccc6c5n(C)c(=O)n6C5CCC(=O)NC5=O)C[C@H]4F)CC3)cn2cc1NC(=O)c1cncc(C(F)(F)F)n1 (single isomer, unassigned) [I-333]",< 10
15,"CN(C[C@H]1CC[C@H](c2cn3cc(NC(=O)c4cncc(C(F)(F)F)n4)c(C(C)(C)O)cc3n2)CC1)[C@@H]1CCN(c2cccc3c2n(C)c(=O)n3C2CCC(=O)NC2=O)C[C@H]1F (single isomer, unassigned) [I-334]",< 10
16,"CN(C[C@H]1CC[C@H](c2cn3cc(NC(=O)c4cncc(C(F)(F)F)n4)c(C(C)(C)O)cc3n2)CC1)[C@H]1CCN(c2cccc3c2n(C)c(=O)n3C2CCC(=O)NC2=O)C[C@@H]1F (single isomer, unassigned) [I-335]",< 10
17,"CN(C[C@H]1CC[C@H](c2cn3cc(NC(=O)c4cncc(C(F)(F)F)n4)c(C(C)(C)O)cc3n2)CC1)[C@H]1CCN(c2cccc3c2n(C)c(=O)n3C2CCC(=O)NC2=O)C[C@H]1F (single isomer, unassigned) [I-336]",< 10
18,"CN(C[C@H]1CC[C@H](c2cn3cc(NC(=O)c4cncc(C(F)(F)F)n4)c(C(C)(C)O)cc3n2)CC1)[C@@H]1CCN(c2cccc3c2n(C)c(=O)n3C2CCC(=O)NC2=O)C[C@@H]1F (single isomer, unassigned) [I-344]",< 10
